Measured values from patent US20250368627A1, “PYRAZOLESULFONAMIDES AS ANTITUMOR AGENTS” (Peloton Therapeutics, Inc., a fully owned subsidiary of …, priority 2019, published 2025).

Legend:
[1] = target: T1, DDB1DB/DCAF15 and RBM39 R1R2 complex (Homo sapiens, UniProt Q14498+Q66K64); experiment: DCAF15 RBM39 Complex Formation Assay (FRET); format: binding; conditions: FRET ratio Em 665/Em 615, incubated overnight at 4° C.
T1 construct: Amino acids 150 to 331 of RBM39 were cloned into pGEX4T3; GST (from vector pGEX4T3); TEV cleavage site (N); made in house; host or cells: DDB1DB/His-DCAF15: baculovirus/Sf9 co-expression; RBM39 R1R2: E. coli (pGEX4T3)
T1 sequence (Q66K64 whole entry, the tested form may be a part): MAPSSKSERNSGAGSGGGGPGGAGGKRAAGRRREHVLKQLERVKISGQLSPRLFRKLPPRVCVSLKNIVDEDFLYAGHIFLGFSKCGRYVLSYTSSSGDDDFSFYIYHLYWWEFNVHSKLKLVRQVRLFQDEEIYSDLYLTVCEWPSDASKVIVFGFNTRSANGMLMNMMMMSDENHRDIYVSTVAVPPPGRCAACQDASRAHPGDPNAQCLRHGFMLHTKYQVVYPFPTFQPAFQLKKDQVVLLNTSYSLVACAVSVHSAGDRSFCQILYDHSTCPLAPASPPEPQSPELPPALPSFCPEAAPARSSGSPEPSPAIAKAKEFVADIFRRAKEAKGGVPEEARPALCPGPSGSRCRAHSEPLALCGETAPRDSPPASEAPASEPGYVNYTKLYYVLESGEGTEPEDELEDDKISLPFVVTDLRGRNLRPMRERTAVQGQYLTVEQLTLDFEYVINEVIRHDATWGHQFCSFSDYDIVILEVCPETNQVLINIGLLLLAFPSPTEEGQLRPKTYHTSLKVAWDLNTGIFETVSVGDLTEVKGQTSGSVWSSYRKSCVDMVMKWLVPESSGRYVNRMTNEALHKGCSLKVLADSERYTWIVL
T1 sequence (Q14498 150-331): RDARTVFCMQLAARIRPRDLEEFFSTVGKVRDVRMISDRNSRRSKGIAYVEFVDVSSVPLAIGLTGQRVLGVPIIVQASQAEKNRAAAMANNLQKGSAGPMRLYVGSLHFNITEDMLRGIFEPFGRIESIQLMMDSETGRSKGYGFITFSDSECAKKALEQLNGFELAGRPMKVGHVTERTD
T1 sequence (Q16531 with tags, fused parts or gaps DEL396-708 partner): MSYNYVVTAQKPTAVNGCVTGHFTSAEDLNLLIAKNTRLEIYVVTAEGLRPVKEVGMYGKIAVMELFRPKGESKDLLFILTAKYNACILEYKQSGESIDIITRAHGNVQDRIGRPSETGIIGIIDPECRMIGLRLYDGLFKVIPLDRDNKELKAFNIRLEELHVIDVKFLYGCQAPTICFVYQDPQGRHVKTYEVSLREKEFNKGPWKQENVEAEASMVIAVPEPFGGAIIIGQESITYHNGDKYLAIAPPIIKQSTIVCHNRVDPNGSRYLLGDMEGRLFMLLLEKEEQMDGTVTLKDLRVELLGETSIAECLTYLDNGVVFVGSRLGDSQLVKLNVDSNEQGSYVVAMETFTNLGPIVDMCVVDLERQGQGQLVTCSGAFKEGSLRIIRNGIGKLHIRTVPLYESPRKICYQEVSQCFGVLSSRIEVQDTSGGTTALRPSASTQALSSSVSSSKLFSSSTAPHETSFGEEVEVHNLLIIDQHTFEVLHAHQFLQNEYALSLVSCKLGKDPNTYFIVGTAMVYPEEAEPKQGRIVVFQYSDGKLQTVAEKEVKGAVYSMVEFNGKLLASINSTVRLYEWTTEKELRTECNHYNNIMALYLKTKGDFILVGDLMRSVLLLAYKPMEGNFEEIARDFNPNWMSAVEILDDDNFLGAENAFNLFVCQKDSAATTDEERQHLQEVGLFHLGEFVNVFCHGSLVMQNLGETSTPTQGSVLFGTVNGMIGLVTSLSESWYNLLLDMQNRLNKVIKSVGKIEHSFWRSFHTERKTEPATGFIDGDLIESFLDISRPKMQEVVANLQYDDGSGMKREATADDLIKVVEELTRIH
Procedure, shortened: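 Ternary complex formation read by TR-FRET (Em 665/615, excitation 340 nm) after overnight incubation at 4° C of 20 nM baculovirus DDB1DB/His-DCAF15 and 50 nM E. coli RBM39 RRM1-RRM2 FLAG fragment with 14-point, 3-fold compound dilutions from 1 μM; EC50 from 4-parameter fit.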

[2] = tested on: HCT116 human colorectal carcinoma cells; experiment: CellTiter-Glo Luminescent Cell Viability Assay; format: cell-based; conditions: HCT-116, 72 h, 3 days
Procedure, shortened: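 CellTiter-Glo luminescence gave viability after 3 days of compound exposure in HCT116 cells grown in DMEM/10% FBS. Final concentrations ran from 5 to 0.0002 […] in 1:3 steps, each in triplicate, with IC50 derived from the curves.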

SMILES | IC50 [1] [nM] | EC50 [2] [nM]
CC(C)(CO)n1ncc(S(=O)(=O)Nc2ccc(F)c3c(C#N)c[nH]c23)c1Cl [Compound 245, 5-chloro-N-(3-cyano-4-fluoro-1H-indol-7-yl)-1-(2-hydroxy-1,1-dimethyl-ethyl)pyrazole-4-sulfonamide] | < 250 | 250 to 1000
CC1(n2ncc(S(=O)(=O)Nc3ccc(Cl)c4c(C#N)c[nH]c34)c2F)COC1 [Compound 130, N-(4-chloro-3-cyano-1H-indol-7-yl)-5-fluoro-1-(3-methyloxetan-3-yl)pyrazole-4-sulfonamide] | < 250 | 250 to 1000
N#Cc1c[nH]c2c(NS(=O)(=O)c3cnn(CCO)c3)ccc(Cl)c12 [Compound 162, N-(4-chloro-3-cyano-1H-indol-7-yl)-1-(2-hydroxyethyl)pyrazole-4-sulfonamide] | < 250 | 250 to 1000
Cc1ccc(NS(=O)(=O)c2cnn(CC3CCC3)c2)c2[nH]cc(C#N)c12 [Compound 78, N-(3-cyano-4-methyl-1H-indol-7-yl)-1-(cyclobutylmethyl)pyrazole-4-sulfonamide] | < 250 | 250 to 1000
Cc1ccc(NS(=O)(=O)c2cnn(-c3ccc(C(F)(F)F)cn3)c2)c2[nH]cc(C#N)c12 [Compound 31, N-(3-cyano-4-methyl-1H-indol-7-yl)-1-[5-(trifluoromethyl)-2-pyridyl]pyrazole-4-sulfonamide] | < 250 | > 1000
Cc1ccc(NS(=O)(=O)c2cnn(C)c2)c2[nH]ccc12 [Compound 74, 1-methyl-N-(4-methyl-1H-indol-7-yl)pyrazole-4-sulfonamide] | > 1000 | > 1000
CC(C)(O)Cn1ncc(S(=O)(=O)Nc2ccc(Cl)c3c(C#N)c[nH]c23)c1N [Compound 289, 5-amino-N-(4-chloro-3-cyano-1H-indol-7-yl)-1-(2-hydroxy-2-methyl-propyl)pyrazole-4-sulfonamide] | < 250 | 250 to 1000
O=S(=O)(Nc1cccc2c(Cl)c[nH]c12)c1cnn(S(=O)(=O)c2cn[nH]c2)c1 [Compound 19, N-(3-chloro-1H-indol-7-yl)-1-(1H-pyrazol-4-ylsulfonyl)pyrazole-4-sulfonamide] | < 250 | 250 to 1000
Cc1ccc(NS(=O)(=O)c2cnn(C3CCNC3=O)c2)c2[nH]cc(C#N)c12 (centres unmarked) [Compound 146, N-(3-cyano-4-methyl-1H-indol-7-yl)-1-(2-oxopyrrolidin-3-yl)pyrazole-4-sulfonamide] | < 250 | > 1000
COC(=O)C(C)(C)n1cc(S(=O)(=O)Nc2ccc(Cl)c3c(C#N)c[nH]c23)cn1 [Compound 169, methyl 2-[4-[(4-chloro-3-cyano-1H-indol-7-yl)sulfamoyl]pyrazol-1-yl]-2-methyl-propanoate] | < 250 | 250 to 1000
CCn1cc(S(=O)(=O)Nc2ccc(Cl)c3c(C#N)c[nH]c23)cn1 [Compound 127, N-(4-chloro-3-cyano-1H-indol-7-yl)-1-ethyl-pyrazole-4-sulfonamide] | < 250 | 250 to 1000
CCn1ncc(S(=O)(=O)Nc2ccc(F)c3c(C#N)c[nH]c23)c1N [Compound 272, 5-amino-N-(3-cyano-4-fluoro-1H-indol-7-yl)-1-ethyl-pyrazole-4-sulfonamide] | < 250 | 250 to 1000
Cc1ccc(NS(=O)(=O)c2cnn([C@H]3CNC[C@H]3F)c2)c2[nH]cc(C#N)c12 [Compound 151, N-(3-cyano-4-methyl-1H-indol-7-yl)-1-[(3S,4R)-4-fluoropyrrolidin-3-yl]pyrazole-4-sulfonamide] | < 250 | > 1000
O=S(=O)(Nc1cccc2c(Cl)c[nH]c12)c1cnn(CF)c1 [Compound 56, N-(3-chloro-1H-indol-7-yl)-1-(fluoromethyl)pyrazole-4-sulfonamide] | < 250 | 250 to 1000
Cc1ccc(NS(=O)(=O)c2cnn(CC(C)(C)O)c2Cl)c2[nH]cc(C#N)c12 [Compound 276, 5-chloro-N-(3-cyano-4-methyl-1H-indol-7-yl)-1-(2-hydroxy-2-methyl-propyl)pyrazole-4-sulfonamide] | < 250 | 250 to 1000
Cc1ccc(NS(=O)(=O)c2cnn(C(F)F)c2N)c2[nH]cc(C#N)c12 [Compound 284, 5-amino-N-(3-cyano-4-methyl-1H-indol-7-yl)-1-(difluoromethyl)pyrazole-4-sulfonamide] | < 250 | < 250
CS(=O)(=O)Cn1cc(S(=O)(=O)Nc2ccc(Cl)c3c(C#N)c[nH]c23)cn1 [Compound 182, N-(4-chloro-3-cyano-1H-indol-7-yl)-1-(methylsulfonylmethyl)pyrazole-4-sulfonamide] | < 250 | 250 to 1000

SMILES | IC50 [1] [nM] | EC50 [2] [nM]
O=S(=O)(Nc1ccc(Cl)c2c(Cl)c[nH]c12)c1cnn(C2(CO)COC2)c1 [Compound 167, N-(3,4-dichloro-1H-indol-7-yl)-1-[3-(hydroxymethyl)oxetan-3-yl]pyrazole-4-sulfonamide] | < 250 | 250 to 1000
C[C@H](O)Cn1cc(S(=O)(=O)Nc2ccc(Cl)c3c(C#N)c[nH]c23)cn1 [Compound 196, N-(4-chloro-3-cyano-1H-indol-7-yl)-1-[(2S)-2-hydroxypropyl]pyrazole-4-sulfonamide] | < 250 | 250 to 1000
N#Cc1c[nH]c2c(NS(=O)(=O)c3cnn([C@@H](CO)C(F)F)c3)ccc(F)c12 [Compound 228, N-(3-cyano-4-fluoro-1H-indol-7-yl)-1-[(1S)-2,2-difluoro-1-(hydroxymethyl)ethyl]pyrazole-4-sulfonamide] | < 250 | > 1000
Cc1ccc(NS(=O)(=O)c2cnn(CC(=O)N3CCCC3)c2)c2[nH]cc(C#N)c12 [Compound 142, N-(3-cyano-4-methyl-1H-indol-7-yl)-1-(2-oxo-2-pyrrolidin-1-yl-ethyl)pyrazole-4-sulfonamide] | < 250 | > 1000
Cn1ncc(S(=O)(=O)Nc2cccc3c(C#N)c[nH]c23)c1N [Compound 299, 5-amino-N-(3-cyano-1H-indol-7-yl)-1-methyl-pyrazole-4-sulfonamide] | < 250 | 250 to 1000
CC(CCO)n1cc(S(=O)(=O)Nc2ccc(Cl)c3c(C#N)c[nH]c23)cn1 (centres unmarked) [Compound 237, N-(4-chloro-3-cyano-1H-indol-7-yl)-1-(3-hydroxy-1-methyl-propyl)pyrazole-4-sulfonamide] | < 250 | < 250
N#Cc1c[nH]c2c(NS(=O)(=O)c3cnn(C4(CO)COC4)c3)ccc(Cl)c12 [Compound 165, N-(4-chloro-3-cyano-1H-indol-7-yl)-1-[3-(hydroxymethyl)oxetan-3-yl]pyrazole-4-sulfonamide] | < 250 | 250 to 1000
CC(CO)(CO)n1cc(S(=O)(=O)Nc2ccc(Cl)c3c(Cl)c[nH]c23)cn1 [Compound 173, N-(3,4-dichloro-1H-indol-7-yl)-1-[2-hydroxy-1-(hydroxymethyl)-1-methyl-ethyl]pyrazole-4-sulfonamide] | < 250 | < 250
CC1(n2cc(S(=O)(=O)Nc3ccc(Cl)c4c(Cl)c[nH]c34)cn2)COC1 [Compound 115, N-(3,4-Dichloro-1H-indol-7-yl)-1-(3-methyloxetan-3-yl)pyrazole-4-sulfonamide] | < 250 | < 250
O=S(=O)(Nc1ccc(Cl)c2c(Cl)c[nH]c12)c1cnn(C(CO)(CO)CCl)c1 [Compound 166, 1-[1-(chloromethyl)-2-hydroxy-1-(hydroxymethyl)ethyl]-N-(3,4-dichloro-1H-indol-7-yl)pyrazole-4-sulfonamide] | < 250 | 250 to 1000
CC(C)(C(N)=O)n1cc(S(=O)(=O)Nc2ccc(Cl)c3c(C#N)c[nH]c23)cn1 [Compound 154, 2-[4-[(4-chloro-3-cyano-1H-indol-7-yl)sulfamoyl]pyrazol-1-yl]-2-methyl-propanamide] | < 250 | 250 to 1000
O=S(=O)(Nc1cccc2c(Cl)c[nH]c12)c1cnn(C2CCOCC2)c1 [Compound 20, N-(3-chloro-1H-indol-7-yl)-1-tetrahydropyran-4-yl-pyrazole-4-sulfonamide] | 250 to 1000 | > 1000
Cn1cc(S(=O)(=O)Nc2cccc3c(Cl)c(F)[nH]c23)cn1 [Compound 129, N-(3-chloro-2-fluoro-1H-indol-7-yl)-1-methyl-pyrazole-4-sulfonamide] | < 250 | > 1000
Cc1ccc(NS(=O)(=O)c2cnn(C)c2)c2[nH]cc(F)c12 [Compound 126, N-(3-fluoro-4-methyl-1H-indol-7-yl)-1-methyl-pyrazole-4-sulfonamide] | 250 to 1000 | 250 to 1000
N#Cc1c[nH]c2c(NS(=O)(=O)c3cnn(C4(CO)CC4)c3)ccc(Cl)c12 [Compound 269, N-(4-chloro-3-cyano-1H-indol-7-yl)-1-[1-(hydroxymethyl)cyclopropyl]pyrazole-4-sulfonamide] | < 250 | 250 to 1000
CC(C)(N)Cn1cc(S(=O)(=O)Nc2ccc(Cl)c3c(C#N)c[nH]c23)cn1 [Compound 178, 1-(2-amino-2-methyl-propyl)-N-(4-chloro-3-cyano-1H-indol-7-yl)pyrazole-4-sulfonamide] | < 250 | > 1000
Cc1ccc(NS(=O)(=O)c2cnn(S(C)(=O)=O)c2)c2[nH]cc(C#N)c12 [Compound 93, N-(3-cyano-4-methyl-1H-indol-7-yl)-1-methylsulfonyl-pyrazole-4-sulfonamide] | < 250 | 250 to 1000
